Measurements reported in publication PMC10847966 (Nature chemical biology, 2023).

Assays:
[1] = target: MthK (Methanothermobacter thermautotrophicus, UniProt O27564, V91F); experiment: stopped-flow Tl+ flux assay in liposomes; format: biochemical
[2] = target: MthK (Methanothermobacter thermautotrophicus, UniProt O27564, A88F); experiment: single-particle cryo-EM structure; format: binding
[3] = target: MthK (Methanothermobacter thermautotrophicus, UniProt O27564, A90L); experiment: stopped-flow Tl+ flux assay in liposomes; format: biochemical

CCCCC[N+](CCCCC)(CCCCC)CCCCC [TPeA] was tested, and the IC50 [1] was 2.05 µM, the “single-particle cryo-EM structure” value [2] was “Processing workflow for A88F-TPeA dataset, TPeA densities in the maps with C4 symmetry (mesh), TPeA molecule (stick)” and the IC50 [3] was 9.7 µM.
